Drawing on patent publication EP4559911A1, “NOVEL HETEROCYCLIC COMPOUND AND PHARMACEUTICAL COMPOSITION FOR INHIBITING AUTOTAXIN COMPRISING THE SAME” (Nextgen Bioscience Co., Ltd., priority 2022, dated 2024), this text covers inhibition for 27 compounds.

For this assay, the target named is human Autotaxin protein (Homo sapiens, UniProt Q13822). Put plainly: Evaluation of the inhibitory activity against human Autotaxin protein (18:1 LysoPC substrate, choline assay kit, absorbance at 570 nm). Type of assay: biochemical. Particulars: compound at 500nM; 2 hours at 37 °C; % inhibition = (1 - absorbance test group / absorbance control group) X 100. On the procedure: Solutions of each compound synthesized (80 uM, 100% dimethyl sulfoxide) were sequentially diluted 5-fold with dimethyl sulfoxide to prepare 6 concentrations. Each concentration of the compound was diluted 2-fold with 1x test buffer (50 mM Tris-Cl (pH 8.0), 5 mM KCl, 1 mM CaCl2, 1 mM MgCl2, 140 mM NaCl, deionized water, 1 mg/mL BSA), and 1 uL (1.25% dimethyl sulfoxide) of this diluted mixture was dispensed into each well of a 96-well clear round-bottom plate. 9 uL of 1x test buffer was added, and 20 uL of 240 nM human autotaxin protein (buffer: 50 mM Tris-HCl, pH 8.0, with 150 mM sodium chloride and 20% glycerol) was added. 10 uL of sonicated 360 uM 18:1 LysoPC (diluted with 1x assay buffer) was added. The reaction was performed for 2 hours in a shaking incubator at 37 °C, and a secondary reaction mixture (choline assay kit, KA1662) (65 uL of 1x assay buffer: 1 uL of choline oxidase: 1 uL of dye probe) was prepared. 60 uL of the secondary reaction mixture was added to the plate where the reaction was performed, and incubated for 30 minutes in a shaker. The absorbance value was measured at a wavelength of 570 nm using a SpectraMax iD3 microplate reader. The percentage inhibition activity value (% inhibition) was calculated by the formula: (1 - absorbance value test group / absorbance value control group) X 100.

Consider `CS(=O)(=O)OC1CCN(c2nnc(-c3cnc(NC4Cc5cc(F)c(F)cc5C4)nc3)o2)C1` (stereo not drawn) [Example 27, 1-(5-(2-((5,6-difluoro-2,3-dihydro-1H-inden-2-yl)amino)pyrimidin-5-yl)-1,3,4-oxadiazol-2-yl)pyrrolidin-3-yl methanesulfonate], for which the inhibition (as a rule, the share of the control response that was lost under treatment) at 0.5 µM came to 12.1%.
With `Fc1cc2c(cc1F)CC(Nc1ncc(-c3nnc(N4CCC(n5cncn5)C4)o3)cn1)C2` (stereo not drawn) [Example 28, 5-(5-(3-(1H-1,2,4-triazol-1-yl)pyrrolidin-1-yl)-1,3,4-oxadiazol-2-yl)-N-(5,6-difluoro-2,3-dihydro-1H-inden-2-yl)pyrimidin-2-amine] the figure was 10.9%; with `Cc1ncn(C2CCN(c3nnc(-c4cnc(NC5Cc6cc(F)c(F)cc6C5)nc4)o3)C2)n1` (stereo not drawn) [Example 29, N-(5,6-difluoro-2,3-dihydro-1H-inden-2-yl)-5-(5-(3-(3-methyl-1H-1,2,4-triazol-1-yl)pyrrolidin-1-yl)-1,3,4-oxadiazol-2-yl)pyrimidin-2-amine], 9.2%.
`CC1(c2c[nH]nn2)CCN(c2nnc(-c3cnc(NC4Cc5cc(F)c(F)cc5C4)nc3)o2)C1` (stereo not drawn) [Example 30, N-(5,6-difluoro-2,3-dihydro-1H-inden-2-yl)-5-(5-(3-methyl-3-(1H-1,2,3-triazol-4-yl)pyrrolidin-1-yl)-1,3,4-oxadiazol-2-yl)pyrimidin-2-amine]: the inhibition at 0.5 µM stood at 96.9%.
For `CC1(c2c[nH]nn2)CCN(c2nnc(-c3cnc(NC4Cc5ccccc5C4)nc3)o2)C1` (stereo not drawn) [Example 31, N-(2,3-dihydro-1H-inden-2-yl)-5-(5-(3-methyl-3-(1H-1,2,3-triazol-4-yl)pyrrolidin-1-yl)-1,3,4-oxadiazol-2-yl)pyrimidin-2-amine], the inhibition at 0.5 µM worked out at 96.8%.
As to `CC1(c2c[nH]nn2)CCN(c2nnc(-c3cnc(NCCc4cc(Cl)cc(Cl)c4)nc3)o2)C1` (stereo not drawn) [Example 32, N-(3,5-dichlorophenethyl)-5-(5-(3-methyl-3-(1H-1,2,3-triazol-4-yl)pyrrolidin-1-yl)-1,3,4-oxadiazol-2-yl)pyrimidin-2-amine], the inhibition at 0.5 µM was 21.9%.
For the compound `CC1(c2c[nH]nn2)CCN(c2nnc(-c3cnc(NCc4cc(F)cc(F)c4)nc3)o2)C1` (stereo not drawn) [Example 33, N-(3,5-difluorobenzyl)-5-(5-(3-methyl-3-(1H-1,2,3-triazol-4-yl)pyrrolidin-1-yl)-1,3,4-oxadiazol-2-yl)pyrimidin-2-amine], the inhibition at 0.5 µM was 29.1%.
In turn, `CC1(c2c[nH]nn2)CCN(C(=O)/C=C/c2cnc(NC3Cc4ccccc4C3)nc2)C1` (stereo not drawn) [Example 34, (E)-3-(2-((2,3-dihydro-1H-inden-2-yl)amino)pyrimidin-5-yl)-1-(3-methyl-3-(1H-1,2,3-triazol-4-yl)pyrrolidin-1-yl)prop-2-en-1-one] gave an inhibition at 0.5 µM of 88.4%.
Compound `Cn1cc(C2CCN(c3nnc(-c4cnc(NC5Cc6cc(F)c(F)cc6C5)nc4)o3)C2)nn1` (stereo not drawn) [Example 35, N-(5,6-difluoro-2,3-dihydro-1H-inden-2-yl)-5-(5-(3-(1-methyl-1H-1,2,3-triazol-4-yl)pyrrolidin-1-yl)-1,3,4-oxadiazol-2-yl)pyrimidin-2-amine] displayed an inhibition at 0.5 µM of 1.3%.
The compound `Fc1ccc2c(c1)CC(Nc1ncc(-c3nnc(N4CCC(c5c[nH]nn5)C4)o3)cn1)C2` (stereo not drawn) [Example 36, 5-(5-(3-(1H-1,2,3-triazol-4-yl)pyrrolidin-1-yl)-1,3,4-oxadiazol-2-yl)-N-(5-fluoro-2,3-dihydro-1H-inden-2-yl)pyrimidin-2-amine] displayed an inhibition at 0.5 µM of 97.4%.
`Clc1ccc2c(c1)CC(Nc1ncc(-c3nnc(N4CCC(c5c[nH]nn5)C4)o3)cn1)C2` (stereo not drawn) [Example 37, 5-(5-(3-(1H-1,2,3-triazol-4-yl)pyrrolidin-1-yl)-1,3,4-oxadiazol-2-yl)-N-(5-chloro-2,3-dihydro-1H-inden-2-yl)pyrimidin-2-amine] displayed an inhibition at 0.5 µM of 97.9%.
Consider `Fc1cc2c(cc1F)CC(Nc1ncc(-c3nnc(N4CCC(c5c[nH]cn5)C4)o3)cn1)C2` (stereo not drawn) [Example 38, 5-(5-(3-(1H-imidazol-4-yl)pyrrolidin-1-yl)-1,3,4-oxadiazol-2-yl)-N-(5,6-difluoro-2,3-dihydro-1H-inden-2-yl)pyrimidin-2-amine], for which the inhibition at 0.5 µM amounted to 55%.
`Fc1cc2c(cc1F)CC(Nc1ncc(-c3nnc(N4CC(c5c[nH]nn5)C4)o3)cn1)C2` [Example 39, 5-(5-(3-(1H-1,2,3-triazol-4-yl)azetidin-1-yl)-1,3,4-oxadiazol-2-yl)-N-(5,6-difluoro-2,3-dihydro-1H-inden-2-yl)pyrimidin-2-amine] had an inhibition at 0.5 µM of 98%.
`O=C(/C=C/c1cnc(NC2Cc3cc(F)c(F)cc3C2)nc1)N1CC(c2c[nH]nn2)C1` [Example 40, (E)-1-(3-(1H-1,2,3-triazol-4-yl)azetidin-1-yl)-3-(2-((5,6-difluoro-2,3-dihydro-1H-inden-2-yl)amino)pyrimidin-5-yl)prop-2-en-1-one] came in with an inhibition at 0.5 µM of 98.6%.
Regarding `Cn1nncc1C1CN(c2nnc(-c3cnc(NC4Cc5cc(F)c(F)cc5C4)nc3)o2)C1` [Example 41, N-(5,6-difluoro-2,3-dihydro-1H-inden-2-yl)-5-(5-(3-(1-methyl-1H-1,2,3-triazol-5-yl)azetidin-1-yl)-1,3,4-oxadiazol-2-yl)pyrimidin-2-amine], the inhibition at 0.5 µM is 70.6%.
Consider `c1ccc2c(c1)CC(Nc1ncc(-c3nnc(N4CC(c5c[nH]nn5)C4)o3)cn1)C2` [Example 42, 5-(5-(3-(1H-1,2,3-triazol-4-yl)azetidin-1-yl)-1,3,4-oxadiazol-2-yl)-N-(2,3-dihydro-1H-inden-2-yl)pyrimidin-2-amine], for which the inhibition at 0.5 µM was determined as 97.8%.
For the compound `Fc1cc2c(cc1F)CC(Nc1ncc(C3CC(N4CC(c5c[nH]nn5)C4)=NO3)cn1)C2` (stereo not drawn) [Example 43, 5-(3-(3-(1H-1,2,3-triazol-4-yl)azetidin-1-yl)-4,5-dihydroisoxazol-5-yl)-N-(5,6-difluoro-2,3-dihydro-1H-inden-2-yl)pyrimidin-2-amine], the inhibition at 0.5 µM was determined as 35.4%.
On to `O=C(CCc1cnc(NC2Cc3cc(F)c(F)cc3C2)nc1)N1CC(c2c[nH]nn2)C1` [Example 44, 1-(3-(1H-1,2,3-triazol-4-yl)azetidin-1-yl)-3-(2-((5,6-difluoro-2,3-dihydro-1H-inden-2-yl)amino)pyrimidin-5-yl)propan-1-one], for which the inhibition at 0.5 µM worked out at 51.5%.
The compound `Fc1cc2c(cc1F)CC(Nc1ncc(-c3cc(N4CC(c5c[nH]nn5)C4)no3)cn1)C2` [Example 45, 5-(3-(3-(1H-1,2,3-triazol-4-yl)azetidin-1-yl)isoxazol-5-yl)-N-(5,6-difluoro-2,3-dihydro-1H-inden-2-yl)pyrimidin-2-amine] returned an inhibition at 0.5 µM of 43%.
With `NS(=O)(=O)C1CN(c2nnc(-c3cnc(NC4Cc5cc(F)c(F)cc5C4)nc3)o2)C1` [Example 46, 1-(5-(2-((5,6-difluoro-2,3-dihydro-1H-inden-2-yl)amino)pyrimidin-5-yl)-1,3,4-oxadiazol-2-yl)azetidine-3-sulfonamide] the figure was 27.1%; with `COC(=O)C1CN(c2nnc(-c3cnc(NC4Cc5cc(F)c(F)cc5C4)nc3)o2)C1` [Example 47, methyl 1-(5-(2-((5,6-difluoro-2,3-dihydro-1H-inden-2-yl)amino)pyrimidin-5-yl)-1,3,4-oxadiazol-2-yl)azetidine-3-carboxylate], 7.5%.
Compound `Fc1cc(F)cc(CNc2ncc(-c3nnc(N4CC(c5c[nH]nn5)C4)o3)cn2)c1` [Example 48, 5-(5-(3-(1H-1,2,3-triazol-4-yl)azetidin-1-yl)-1,3,4-oxadiazol-2-yl)-N-(3,5-difluorobenzyl)pyrimidin-2-amine] showed an inhibition at 0.5 µM of 39.2%.
The compound `OC1CN(c2nnc(-c3cnc(NC4Cc5cc(F)c(F)cc5C4)nc3)o2)C1` [Example 49, 1-(5-(2-((5,6-difluoro-2,3-dihydro-1H-inden-2-yl)amino)pyrimidin-5-yl)-1,3,4-oxadiazol-2-yl)azetidin-3-ol] showed an inhibition at 0.5 µM of 11%.
`O=C(O)C1CN(c2nnc(-c3cnc(NC4Cc5cc(F)c(F)cc5C4)nc3)o2)C1` [Example 50, 1-(5-(2-((5,6-difluoro-2,3-dihydro-1H-inden-2-yl)amino)pyrimidin-5-yl)-1,3,4-oxadiazol-2-yl)azetidine-3-carboxylic acid] displayed an inhibition at 0.5 µM of 14%.
Turning to `CC1(c2c[nH]nn2)CN(c2nnc(-c3cnc(NC4Cc5cc(F)c(F)cc5C4)nc3)o2)C1` [Example 51, N-(5,6-difluoro-2,3-dihydro-1H-inden-2-yl)-5-(5-(3-methyl-3-(1H-1,2,3-triazol-4-yl)azetidin-1-yl)-1,3,4-oxadiazol-2-yl)pyrimidin-2-amine], the inhibition at 0.5 µM came to 91.8%.
On to `COC(=O)CC1CN(c2nnc(-c3cnc(NC4Cc5cc(F)c(F)cc5C4)nc3)o2)C1` [Example 52, Methyl 2-(1-(5-(2-((5,6-difluoro-2,3-dihydro-1H-inden-2-yl)amino)pyrimidin-5-yl)-1,3,4-oxadiazol-2-yl)azetidin-3-yl)acetate], for which 0.5 µM produced 21.9% inhibition.
Consider `O=C(O)CC1CN(c2nnc(-c3cnc(NC4Cc5cc(F)c(F)cc5C4)nc3)o2)C1` [Example 53, 2-(1-(5-(2-((5,6-difluoro-2,3-dihydro-1H-inden-2-yl)amino)pyrimidin-5-yl)-1,3,4-oxadiazol-2-yl)azetidin-3-yl)acetic acid], for which 0.5 µM produced 24.7% inhibition.
